Experimental data taken from patent US6914049B2, “IGF-binding protein-derived peptide or small molecule” (Bioexpertise, LLC, priority 2001, dated 2005).
Blank lines part the entries; values can stand above or below the molecule they belong to. Where no end group is shown, it is not given here.

How the values were obtained:
[1] = test system: MA-16C mammary adenocarcinoma tumors; test: MA-16C mammary adenocarcinoma tumor implants; type: in vivo, female C3H mice; settings: DOX study
Protocol: Fragments of MA-16C mammary adenocarcinoma tumors were implanted subcutaneously into female C3H mice (8-11 animals per group). The animals were treated with vehicle alone, IGFBP-3 (4 mg/kg/day for 21 days by subcutaneous injection), doxorubicin (2 mg/kg on days 1 and 8 by intravenous injection), or IGFBP-3 plus doxorubicin. A separate study was performed where the animals were treated with vehicle alone, 5-fluorouracil (10 mg/kg on days 1-5 by intraperitoneal injection), or IGFBP-3 plus 5-fluorouracil. Tumor size was measured at day 18, and the mice were sacrificed at day 21, and the implanted tumors were removed for determination of caspase-3 activity (a marker of apoptosis-only performed for DOX groups).

HEK293 cells [2] = test: Nuclear translocation of MBD-GFP32 after endocytosis inhibitors; type: cell-based, human; settings: inhibitor 10 μg/ml one hour; 500 ng/ml MBD-GFP32, twenty minutes; FIG. 19
Protocol: HEK293 cells were pre-incubated with inhibitors nystatin (inhibitor of caveolin pathway) or chlorpromazine (inhibitor of clathrin pathway) for one hour at 10 μg/ml. […] Extracts were assayed by anti-GFP ELISA.

[3] = Metal-binding of peptides to Ni-NTA resin; settings: percentage of loaded peptide bound to Ni-NTA resin; 1-1.5 mg loaded
Protocol: (§1) Apoptotic activity is expressed in arbitrary caspase-3 units normalized to MBD2 on a molar basis (MBD2 activity was defined as 100 units (avg. of 3 experiments); “nd” indicates “not done”; “ps” indicates phosphoserine. Metal-binding is expressed as a percentage of loaded peptide bound to a Ni-NTA resin; approximately 1-1.5 mg of peptide were loaded on the column. Cell uptake was determined using genetic fusions to GFP as described in Example 9.

HEK 293 cells [4] = test: Co-apoptotic activity of MBD peptides and paclitaxel, caspase-3; type: cell-based, human; settings: normalized to MBD2 = 100 on a molar basis; peptide 50 ng/ml, 0.3 ng/ml paclitaxel, 8 hours
Protocol: Peptides (50 ng/ml) were added to 80% confluent HEK 293 cells grown in DMEM supplemented with 0.3 ng/ml paclitaxel concurrent with peptide. Caspase-3 activity was measured in cell extracts 8 hours post-addition.
as §1

HEK293 cells [5] = test: Caspase-3 apoptosis assay on nutritionally stressed HEK293 cells (Examples 1-2); type: cell-based, human
Protocol: Human embryonal kidney 293 (HEK293) cells were grown in Dulbecco's Modified Eagle Medium (D-MEM) supplemented with fetal calf serum at 2%, 4%, 6%, or 8%. When the cells reached 80-85% confluency (cell titer approximately 2.1×10^6 cells per plate), 5 μg of IGFBP-3 or buffer control was added to each plate. The cells were incubated at 37° C. overnight. The next day the medium was removed and the cells were rinsed with trypsin-EDTA (0.25% trypsin, 1 mM EDTA) plus 1× phosphate buffered saline. The cells were centrifuged and the supernatant was removed. ApoAlert caspase-3 assay kit from Clontech Inc (Palo Alto, Calif.) was used to measure apoptosis. The cells were resuspended in 50 μl of chilled cell lysis buffer and incubated on ice for 10 minutes. The resulting cell, lysates were centrifuged at 14000 rpm in a Beckman microcentrifuge for 3 minutes at 4 C. The supernatant was transferred to new tubes and 50 μl of 2× reaction buffer/DTT plus 5 μl of 1 mM caspase-3 substrate was added to each tube. After incubating at 37 C. for 1 hour in a water bath, the samples were read at 405 nm in a microplate reader.
Peptides derived from IGFBP-3 were tested for pro-apoptotic activity essentially as described in Example 1.
The peptides tested are described in Table 1 (peptides marked with an asterisk include a hexahistidine tag).

[6] = Binding of short peptides to Ni-His-Bind column, imidazole elution
Protocol: We further tested the ability of IGFBP-3-derived sub-domains and peptides to bind metal. As shown in Example 5, below, a defined fragment of IGFBP-3 generated in vivo can be captured on IMAC. Two short peptides were passed through a Ni-His-Bind column:
Both peptides bound specifically to the column. Peptide 1 eluted with 60 mM imidazole, whereas higher concentrations of imidazole (1M) were necessary to elute Peptide 2.

HEK293 cells [7] = test: Nuclear translocation of biotinylated peptide/streptavidin-HRP conjugate; type: cell-based, human; settings: approx. 90 Kd conjugate, 20 minutes; FIG. 24
Protocol: Biotinylated MBD peptides MBD9, MBD20 ([…] (SEQ ID NO: 37): the MBD core 14mer is underlined, and the caveolin consensus binding sequence is bolded) or MBD21 ([…] (SEQ ID NO: 38): the MBD core 14mer is underlined, and the caveolin consensus binding sequence is bolded) were each mixed with streptavidin-horseradish peroxidase conjugate (3-6× molar excess of MBD peptide) and added to HEK293 cells. After 20 minutes, nuclear and cytoplasmic extracts were prepared as described in Example 20 and assayed for peroxidase activity.

MDA-MB-231 cells = test: Sensitization to low dose paclitaxel, NMP levels; type: cell-based; settings: paclitaxel 100 ng/ml, 50 ng/ml peptide, FIG. 16B
Protocol: MDA-MB-231 cells were cultured in the presence of low dose paclitaxel (100 ng/ml) with and without MDB2 (50 ng/ml). Apoptosis was assayed by measuring NMP levels.

HEK 293 cells [8] = test: IGF-independence of apoptosis stimulation, caspase-3; type: cell-based, human
Protocol: HEK 293 cells were cultured under stressed conditions (low serum or in the presence of paclitaxel) with and without IGFBP-3 (50 ng/ml) or MBD2 (50 ng/ml). Apoptosis was assayed using the caspase-3 assay as described in Example 1.

[9] = test system: HEK 293 cells transfected with dominant negative inserts; test: Co-apoptotic activity in cells with blocked signal transduction; type: cell-based, human; settings: AktDN, PTEN, ILKdn, rafDN inserts; with paclitaxel; FIG. 15
Protocol: HEK 293 cells were transfected with pUSEamp, or pUSEamp carrying a Akt dominant negative (AktDN), PTEN, ILK dominant negative (ILKdn) or raf dominant negative (rafDN) insert (Upstate Biotechnologies). The cells were cultured as described in Example 10 (including paclitaxel), with or without MBD2.

HEK 293 cells [10] = test: Integrin dependence of pro-apoptotic activity, caspase-3; type: cell-based, human; settings: with paclitaxel; FIG. 12A
Protocol: HEK 293 cells were cultured as described in Example 10, including paclitaxel. Cells were incubated with MDB2 either alone or in combination with an anti-adhesion protein antibody. Antibodies were against integrin associated protein (LAP), fibronectin (Fn), transferrin receptor (TfnR), alpha 5 integrin, alpha 6 integrin, alpha v integrin, beta 1 integrin, and beta 5 integrin. Caspase-3 activity was assayed as described in Example 1.

MA16C cells = test: Sensitization to low dose doxorubicin, caspase-3; type: cell-based; settings: doxorubicin 75 ng/ml, FIG. 16A
Protocol: MA16C cells were cultured in the presence of MDB2 and a low dose of doxorubicin (75 ng/ml). Apoptosis was assayed using the caspase-3 assay as described in Example 1.

HEK293 cells [11] = test: Co-apoptotic activity with paclitaxel in presence of plasma proteins; type: cell-based, human; settings: 50 ng/ml, 0.3 ng/ml paclitaxel, eight hours
Protocol: Co-apoptotic activity of MBD peptides or IGFBP-3 with paclitaxel was tested in the presence or absence of two plasma proteins; fibronectin and fibrinogen. MBD peptides or IGFBP-3, (50 ng/ml), 0.3 ng/ml paclitaxel, and plasma proteins (200 ng/ml) were added to 80% confluent HEK293 cells grown in DMEM essentially as described in Example 8. Caspase-3 was measured after an eight hour incubation.
Apoptotic activity was calculated in arbitrary caspase-3 units normalized to MBD2 (MBD2 activity was defined as 100 units) Results are summarized in Table 4 (average of 3 experiments).

Molecule: COc1cccc2c1C(=O)c1c(O)c3c(c(O)c1C2=O)C[C@@](O)(C(=O)CO)C[C@@H]3O[C@H]1C[C@H](N)[C@H](O)[C@H](C)O1 [DOX, doxorubicin, reference compound]
- Tumor Weight ([1]; IGFBP-3 4 mg/kg/day sc 21 days, doxorubicin 2 mg/kg iv days 1 and 8): 1966 + 677 mg
- Lung Metastases ([1]; animals with metastases/animals): 0/12
- Caspase-3 ([1]; tumors removed at day 21): 7.88 ± 6.27

Molecule: CN(C)CCCN1c2ccccc2Sc2ccc(Cl)cc21 [chlorpromazine]
- effect on nuclear translocation of MBD peptides (HEK293 cells [2]): inhibit nuclear translocation of MBD peptides

Molecule: C[C@@H]1[C@H](O)[C@@H](C)/C=C/C=C/CC/C=C/C=C/C=C/C=C/C(O[C@H]2O[C@H](C)[C@@H](O)[C@H](N)[C@@H]2O)CC2O[C@](O)(CC(O)C(O)CCC(O)CC(O)CC(O)CC(=O)O[C@H]1C)CC(O)C2C(=O)O (some centres unmarked) [nystatin]
- effect on nuclear translocation of MBD peptides (HEK293 cells [2]): inhibit nuclear translocation of MBD peptides

- Metal-binding [3]: 92 percentage
Molecule: CRPSKGRKRGFC [MBD4]
- Apoptotic Activity (HEK 293 cells [4]): 10-15 arbitrary caspase-3 units

Molecule: CRPSKGRKRGFCW [MBD12]
- Apoptotic Activity (HEK 293 cells [4]): 10-40 arbitrary caspase-3 units

Molecule: DKKGFYKKKQCRPSKGRKRGFCW [MBD1]
- Metal-binding [3]: 22 percentage
- pro-apoptotic activity (HEK293 cells [5]; FIG. 4A/4B): dramatic lowering of pro-apoptotic activity
- imidazole concentration that elutes the peptide [6]: 60 mM
- Apoptotic Activity (HEK 293 cells [4]): 10-15 arbitrary caspase-3 units

- Metal-binding [3]: 95 percentage
Molecule: GFYKKKQCRPSKGRKRGFCW [MBD5]
- Apoptotic Activity (HEK 293 cells [4]): 10-15 arbitrary caspase-3 units

Molecule: KKEKDIMKKTIQCRPSKGRKRGFCWNGR [MBD10]
- Apoptotic Activity (HEK 293 cells [4]): 127 arbitrary caspase-3 units

Molecule: KKGFYKKKQCRPSKGRKRGFCWAVDKYG (cysteine pairing not given here; also: biotinylated, position not given here) [MBD21, tested biotinylated with streptavidin-HRP]
- nuclear mobilization of streptavidin-HRP conjugate compared with MBD9 (HEK293 cells [7]): far more efficiently

- Metal-binding [3]: 45 percentage
Molecule: KKGFYKKKQCRPSKGRKRGFCWNGRK [MBD9]
- Apoptotic Activity (HEK 293 cells [4]): 149 arbitrary caspase-3 units

Molecule: QCKMSLNGQRGECW [BP2n1s]
- Apoptotic Activity (HEK 293 cells [4]): <5 arbitrary caspase-3 units

- Metal-binding [3]: 28 percentage
Molecule: QCKPSRGRKRGICW [BP5n1s]
- Apoptotic Activity (HEK 293 cells [4]): <5 arbitrary caspase-3 units

- Metal-binding [3]: 100 percentage
Molecule: QCRPSEGGKRGFCW [MBD3]
- Apoptotic Activity (HEK 293 cells [4]): <5 arbitrary caspase-3 units

Molecule: QCRPSKGRKRGFC [MBD13]
- Apoptotic Activity (HEK 293 cells [4]): 10-40 arbitrary caspase-3 units

- Metal-binding [3]: 66 percentage
- binding to the column [6]: binds metal more tightly
- imidazole concentration necessary to elute the peptide [6]: 1 M
Molecule: QCRPSKGRKRGFCW [MBD2]
- sensitization to paclitaxel (MDA-MB-231 cells): sensitizes MDA-MB-231 cells to low doses of paclitaxel
- IGF dependence of pro-apoptotic activity (HEK 293 cells [8]; 0.3 ng/ml paclitaxel, alone or with Y60L-IGF-I, FIG. 11C): independent of the presence of IGF
- pro-apoptotic activity under stressed conditions (HEK 293 cells [8]; low serum or paclitaxel, 50 ng/ml, FIGS. 11A, 11B): nearly identical
- pro-apoptotic activity relative to intact IGFBP-3 or a longer peptide (HEK293 cells [5]; on a weight basis, FIG. 4B): 3-4 ×
- pro-apoptotic activity in cells with blocked pathways [9]: inhibited in cells in which the PI3K/ILK kinase signal transduction pathway is blocked, but not in cells where the MAPK signal transduction pathway is blocked
- pro-apoptotic activity with anti-adhesion protein antibodies (HEK 293 cells [10]): inhibited by antibodies against integrins and integrin-associated proteins
- Apoptotic Activity (HEK 293 cells [4]): 100 arbitrary caspase-3 units
- sensitization to doxorubicin (MA16C cells): sensitizes MA16C mammary adenocarcinoma cells to low doses of doxorubicin
- co-apoptotic activity with Fibrinogen (HEK293 cells [11]; Fibrinogen 200 ng/ml): 67.5 arbitrary caspase-3 units
- co-apoptotic activity with Fibronectin (HEK293 cells [11]; Fibronectin 200 ng/ml): 98.3 arbitrary caspase-3 units
- co-apoptotic activity, plasma protein none (HEK293 cells [11]; no plasma protein): 100.0 arbitrary caspase-3 units

Molecule: QCRPSKGRKRGFCWAVDKYG (cysteine pairing not given here; also: biotinylated, position not given here) [MBD20, tested biotinylated with streptavidin-HRP]
- nuclear mobilization of streptavidin-HRP conjugate compared with MBD9 (HEK293 cells [7]): far more efficiently

- Metal-binding [3]: 11 percentage
Molecule: QCRPSKGRKRGFCWNGR [MBD7]
- Apoptotic Activity (HEK 293 cells [4]): 89 arbitrary caspase-3 units
